Entries after “also recorded” stand apart in the source; their conditions may differ.
Assays:
Siglec-7EcFc (WT) = system: T1, Siglec-7EcFc (WT); test: ELISA binding of Siglec-7EcFc to immobilised gangliosides / (Neu5Ac)n-PE; parameters: species or system human; settings: ligand coated on plastic wells
T1 construct: the extracellular domain of Siglec-7 fused with the human IgG1 Fc region; made in house
Protocol: (§1) For ganglioside binding assay, 96-well plates (Nunc, Roskilde, Denmark) were coated with 50 μL/well of 0–6.0 µM ganglioside in ethanol and left to air dry overnight or at 37 °C for 2 h. The wells were washed three times with TBS and blocked with 1% BSA (w/v) in TBS. Siglec-7-Fc fusion protein (64 pmol/mL) was pre-complexed with a 1/1000 dilution of horseradish peroxidase-conjugated goat anti-human IgG + M + A (American Qualex) for 30 min at room temperature, and 50 μL of reaction mixture was added to each well. After 2 h incubation at room temperature, the wells were washed extensively, then 100 µL of 0.05% o-phenylenediamine in 0.1 M Tris-HCl (pH 6.8) containing 0.006% H2O2 was added and incubated at room temperature. The absorbance was then measured at 490 nm (Bio-Rad, Hercules, CA) after the addition of 100 µL of 2 N sulphuric acid. For measurement of the inhibition toward GD3-Siglec-7 interaction, inhibitors (0–200 μM for octyl-α2,8-mono/di/tri/teraSia, 0–50 μM for tetradecyl-ganglioside glycan), Siglec-7, and peroxidase conjugated anti-human IgG + IgM + IgA were pre-incubated at 25 °C for 30 min, and the reaction mixture with or without inhibitor was used as described above. All experiments were performed three times.

Siglec-7V R124A = system: T2, Siglec-7V R124A; test: STD-NMR and 1H-NMR titration; assay type: binding, human; settings: protein:ligand 1:20, 10 °C, pH 7.9
T2 construct: DNA fragments encoding human Siglec-7 V-set domain (residues 18–144) and the mutants were sub-cloned into the pCold-PDI vector; (His)6-PDI (cleaved yes); made in house; host or cells: Escherichia coli Origami B (DE3)
Protocol: (§2) Recombinant human Siglec-7 V-set domain and its mutants (R67A, R124A, R67K) were prepared using the pCold-PDI vector as previously described with modifications. DNA fragments encoding human Siglec-7 V-set domain (residues 18–144) and the mutants were sub-cloned into the pCold-PDI vector. The plasmids were transformed into Escherichia coli Origami B (DE3) (Novagen), and the cells were grown at 37 °C in LB medium. After induction with isopropyl β-D-thiogalactoside (0.5 mM), the cells were cultured at 15 °C for further 16 h. Then the cells were harvested and sonicated in 20 mM Tris-HCl (pH 8.0), and containing 0.1 M NaCl and 0.1 mM EDTA. After centrifugation, the supernatant containing (His)6-PDI-fused protein was collected and applied to a Ni sepharose column (GE healthcare) equilibrated with 20 mM Tris-HCl (pH 8.0), and containing 0.1 M NaCl. After washing with 20 mM Tris-HCl (pH 8.0) containing 0.1 M NaCl and 20 mM imidazole, the protein was eluted with 20 mM Tris-HCl (pH 8.0) containing 0.1 M NaCl and 500 mM imidazole. The (His)6-PDI-fused protein was extensively dialysed against 50 mM Tris-HCl (pH 8.0) containing 0.1 M NaCl, 5 mM reduced glutathione, 0.5 mM oxidised glutathione, and 10% glycerol. The protein was then digested with TEV protease to remove the (His)6-PDI tag. The digested proteins were passed through the Ni sepharose column and the final purification was performed with a Hiroad Superdex 75 pg size exclusion column (GE healthcare) equilibrated with 20 mM Tris-HCl (pH 8.0) containing 0.1 M NaCl.
(§3) NMR spectra were collected using the DRX-600 (600 MHz) spectrometer (Bruker; Billerica, MA, US) equipped with a TXI-probe. The probe temperature was set at 283 K. Siglec-7 V-set domains (WT, R124A, R67A) were prepared with 10 mM phosphate buffer including 150 mM NaCl in D2O (D: 99%). The final protein concentration before addition of the ligand was 55 μM (pH 7.9). The 5.5 mM diSia and triSia solutions (pH 7.9) in PBS were gradually added into the protein solution to achieve the protein:ligand molar ratios of 1:0, 1:1, 1:2, 1:5, 1:10, and 1:20; the ^1H-NMR spectra were obtained with the WATERGATE pulse sequence in each protein:ligand ratio. Data were collected for 1024 scans by suppressing the residual HDO signal to 3-9-19 pulse train. Saturation Transfer Difference (STD) NMR experiments were performed at the protein:ligand ratio of 1:20. The protein signal was saturated on resonance at 0.15 ppm and off resonance at 40 ppm with a cascade of 60 selective Gaussian shaped pulses of 50 ms duration and 3 s saturation in total. The WATERGATE pulse sequence was used to suppress the residual HDO signal, and a spin-lock filter with a strength of 8 kHz and a duration of 10 ms was applied to suppress protein background signal. All STD NMR experiments were collected for 1024 scans with an inter pulse delay of 100 μs. The Sias signal assignments have been previously described by Jennings et al.[34].

Siglec-7V R67A = system: T3, Siglec-7V R67A; test: STD-NMR and 1H-NMR titration; assay type: binding, human; settings: protein:ligand 1:20, 10 °C, pH 7.9
T3 construct: DNA fragments encoding human Siglec-7 V-set domain (residues 18–144) and the mutants were sub-cloned into the pCold-PDI vector; (His)6-PDI (cleaved yes); made in house; host or cells: Escherichia coli Origami B (DE3)
Protocol: as §2, §3

Siglec-7V WT = system: T4, Siglec-7V WT; test: STD-NMR and 1H-NMR titration; assay type: binding, human; settings: protein:ligand 1:20, 10 °C, pH 7.9
T4 construct: DNA fragments encoding human Siglec-7 V-set domain (residues 18–144) and the mutants were sub-cloned into the pCold-PDI vector; (His)6-PDI (cleaved yes); made in house; host or cells: Escherichia coli Origami B (DE3)
Protocol: as §2, §3

[1] = target: T5, GD3-Siglec-7EcFc interaction (Homo sapiens, UniProt Q9Y286); test: Inhibition of GD3-Siglec-7EcFc binding (ELISA, double reciprocal plots); settings: for Inhibition type: double reciprocal plots
T5 construct: the extracellular domain of Siglec-7 fused with the human IgG1 Fc region; made in house
T5 sequence (Q9Y286 19-353 limits assumed): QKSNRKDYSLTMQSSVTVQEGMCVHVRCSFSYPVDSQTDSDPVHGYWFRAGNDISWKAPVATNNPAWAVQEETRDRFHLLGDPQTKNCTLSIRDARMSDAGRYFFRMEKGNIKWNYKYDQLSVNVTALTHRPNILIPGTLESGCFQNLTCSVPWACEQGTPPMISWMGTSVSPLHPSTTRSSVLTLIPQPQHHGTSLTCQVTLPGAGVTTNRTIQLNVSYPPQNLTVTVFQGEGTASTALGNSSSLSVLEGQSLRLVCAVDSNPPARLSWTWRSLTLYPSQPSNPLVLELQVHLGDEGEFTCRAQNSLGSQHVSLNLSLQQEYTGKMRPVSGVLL
Protocol: as §1

Siglec-7EcFc (R67A) = system: T6, Siglec-7EcFc (R67A); test: ELISA binding of Siglec-7EcFc to immobilised gangliosides / (Neu5Ac)n-PE; parameters: species or system human; settings: ligand coated on plastic wells, compared with WT
T6 construct: the extracellular domain of Siglec-7 fused with the human IgG1 Fc region; made in house
Protocol: as §1

Siglec-7EcFc (R67K) = system: T7, Siglec-7EcFc (R67K); test: as above; parameters: species or system human; settings: ligand coated on plastic wells, compared with WT
T7 construct: the extracellular domain of Siglec-7 fused with the human IgG1 Fc region; made in house
Protocol: as §1

Siglec-7EcFc (R92A) = system: T8, Siglec-7EcFc (R92A); test: as above; parameters: species or system human; settings: ligand coated on plastic wells, compared with WT
T8 construct: the extracellular domain of Siglec-7 fused with the human IgG1 Fc region; made in house
Protocol: as §1

Siglec-7EcFc (R92K) = system: T9, Siglec-7EcFc (R92K); test: as above; parameters: species or system human; settings: ligand coated on plastic wells, compared with WT
T9 construct: the extracellular domain of Siglec-7 fused with the human IgG1 Fc region; made in house
Protocol: as §1

Compound: Neu5Aα2 → 3Galβ1 → 4Glc-Cer [GM3]
- binding activity (ELISA) (Siglec-7EcFc (WT)): Almost no binding activity

Compound: CC(=O)NC1C(O)CC(OC(CO)C(O)C2OC(O)(C(=O)O)CC(O)C2NC(C)=O)(C(=O)O)OC1C(O)C(O)CO (stereo not shown) [diSia, Neu5Acα(2-8)Neu5Ac-OH]
- binding in solution (STD-NMR) (Siglec-7V R124A): very little or no interactions
- binding in solution (STD-NMR) (Siglec-7V R67A): obviously recognised
- binding in solution (STD-NMR) (Siglec-7V WT): obviously recognised

Compound: CCCCCCCCOC1(C(=O)O)CC(O)C(NC(C)=O)C(C(O)C(CO)OC2(C(=O)O)CC(O)C(NC(C)=O)C(C(O)C(O)CO)O2)O1 (stereo not drawn) [α2,8-diSia]
- Inhibition type [1]: competitive inhibition
- inhibition activity toward Siglec-7EcFc-GD3 interaction ([1]; octyl glycosides, 0–200 μM): the effect was weak

Compound: CCCCCCCCOC1(C(=O)O)CC(O)C(NC(C)=O)C(C(O)C(CO)OC2(C(=O)O)CC(O)C(NC(C)=O)C(C(O)C(CO)OC3(C(=O)O)CC(O)C(NC(C)=O)C(C(O)C(O)CO)O3)O2)O1 (stereo not drawn) [α2,8-triSia]
- Inhibition type [1]: non-competitive inhibition
- IC50 ([1]; octyl glycosides, 0–200 μM, GD3-coated plate): < 100 µM

Compound: Neu5Acα2 → 8Neu5Aα2 → 3Galβ1 → 4Glc-Cer [GD3]
- binding activity (ELISA) (Siglec-7EcFc (R67A)): significantly lower binding activity; also recorded: did not effectively bind
- binding activity (ELISA) (Siglec-7EcFc (R67K)): significantly lower binding activity
- binding activity (ELISA) (Siglec-7EcFc (R92A)): almost the same binding activity
- binding activity (ELISA) (Siglec-7EcFc (R92K)): almost the same binding activity
- binding activity (ELISA) (Siglec-7EcFc (WT)): higher binding activity

Compound: CC(=O)NC1C(O)CC(OC(CO)C(O)C2OC(OC(CO)C(O)C3OC(O)(C(=O)O)CC(O)C3NC(C)=O)(C(=O)O)CC(O)C2NC(C)=O)(C(=O)O)OC1C(O)C(O)CO (stereo not shown) [triSia, Neu5Acα(2-8)Neu5Acα(2-8)Neu5Ac-OH]
- binding in solution (STD-NMR) (Siglec-7V R124A): very little or no interactions
- binding in solution (STD-NMR) (Siglec-7V R67A): involved in binding
- binding in solution (STD-NMR) (Siglec-7V WT): involved in binding

From article PMC7250851, “Discovery of a new sialic acid binding region that regulates Siglec-7” (Scientific Reports, 2020)
